Data published in PubChem BioAssay AID248 (DTP/NCI, 2004).
Several values for one entry are separate records, joined by “and”; a condition that tells them apart may be missing. Equal entries are not always repeated. Inconclusive results and toxic doses are left out. Rule as the data show it: active = T/C of 150% or more; inactive = T/C below 125%. Square brackets hold non-standard residues; d marks the D form. Peptide text beside a SMILES is read from it. * marks the point of attachment. ξ: configuration not given here. Cbz = O=C(OCc1ccccc1)*; ξL = CC(C)CC(N)C(=O)O; OBn = c1ccc(CO*)cc1

Test system: L1210 leukemia ip in BDF1 mice, survival T/C
Assay: NCI In Vivo Anticancer Drug Screen. Data for tumor model L1210 Leukemia (intraperitoneal) in B6D2F1 (BDF1) mice
Conditions: endpoint: mean survival time, higher = longer survival
In short: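 Transplanted-tumor mice were given test agent; controls received vehicle only. Survival readings from the two groups were divided (treated over control).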

[1] = dose: 100.0 mg/kg/injection, schedule: Q04DX002 (ip), vehicle: saline
[2] = dose: 200.0 mg/kg/injection, schedule: Q04DX002 (ip), vehicle: saline
[3] = dose: 400.0 mg/kg/injection, schedule: Q04DX002 (ip), vehicle: saline
[4] = dose: 100.0 mg/kg/injection, schedule: Q04DX003 (ip), vehicle: Klucel (hydroxypropylcellulose) (HPC)
[5] = dose: 200.0 mg/kg/injection, schedule: Q04DX003 (ip), vehicle: Klucel (hydroxypropylcellulose) (HPC)
[6] = dose: 400.0 mg/kg/injection, schedule: Q04DX003 (ip), vehicle: Klucel (hydroxypropylcellulose) (HPC)
[7] = dose: 100.0 mg/kg/injection, schedule: Q01DX009 (ip), vehicle: Klucel (hydroxypropylcellulose) (HPC)
[8] = dose: 200.0 mg/kg/injection, schedule: Q01DX009 (ip), vehicle: Klucel (hydroxypropylcellulose) (HPC)
[9] = dose: 400.0 mg/kg/injection, schedule: Q01DX009 (ip), vehicle: Klucel (hydroxypropylcellulose) (HPC)
[10] = dose: 100.0 mg/kg/injection, schedule: Q01DX001 (ip), vehicle: saline
[11] = dose: 200.0 mg/kg/injection, schedule: Q01DX001 (ip), vehicle: saline
[12] = dose: 100.0 mg/kg/injection, schedule: Q04DX002 (ip), vehicle: Klucel (hydroxypropylcellulose) (HPC)
[13] = dose: 200.0 mg/kg/injection, schedule: Q04DX002 (ip), vehicle: Klucel (hydroxypropylcellulose) (HPC)
[14] = dose: 50.0 mg/kg/injection, schedule: Q01DX001 (ip), vehicle: carboxymethylcellulose (CMC)
[15] = dose: 100.0 mg/kg/injection, schedule: Q01DX001 (ip), vehicle: carboxymethylcellulose (CMC)
[16] = dose: 200.0 mg/kg/injection, schedule: Q01DX001 (ip), vehicle: carboxymethylcellulose (CMC)
[17] = dose: 100.0 mg/kg/injection, schedule: Q04DX003 (ip), vehicle: saline
[18] = dose: 200.0 mg/kg/injection, schedule: Q04DX003 (ip), vehicle: saline
[19] = dose: 50.0 mg/kg/injection, schedule: Q04DX002 (ip), vehicle: Klucel (hydroxypropylcellulose) (HPC)
[20] = dose: 100.0 mg/kg/injection, schedule: Q04DX003 (ip), vehicle: acetone
[21] = dose: 200.0 mg/kg/injection, schedule: Q04DX003 (ip), vehicle: acetone
[22] = dose: 400.0 mg/kg/injection, schedule: Q04DX002 (ip), vehicle: Klucel (hydroxypropylcellulose) (HPC)

Measured: T/C

C/C(=C1\C(=O)Nc2ccccc21)c1ccco1
inactive: dose: 100.0 mg/kg/injection, schedule: Q04DX003 (ip), vehicle: saline with Tween-80 101 % of control | dose: 200.0 mg/kg/injection, schedule: Q04DX003 (ip), vehicle: saline with Tween-80 104 % of control | dose: 400.0 mg/kg/injection, schedule: Q04DX003 (ip), vehicle: saline with Tween-80 104 % of control

CCS(=O)(=O)/C=C/c1cccnc1
inactive: [1] 96 % of control | [2] 100 % of control | [3] 107 % of control

CC(C)CC(NC(=O)CNC(=O)CNC(=O)OCc1ccccc1)C(=O)OCc1ccccc1 (stereo not drawn) (Cbz-Gly-Gly-[ξL]-OBn)
inactive: [4] 94 % of control | [5] 96 % of control | [6] 100 % of control

O=C(Nc1cccc(F)c1)Nc1ccc([N+](=O)[O-])cc1Cl
inactive: [7] 101 % of control | [8] 100 % of control | [9] 103 % of control

CCN(CC)CC(Cl)COc1ccccc1C (centres undefined)
inactive: [10] 91 % of control | [11] 94 % of control

N#CSCc1cc(Cl)c(CSC#N)c(Cl)c1Cl
inactive: dose: 75.0 mg/kg/injection, schedule: Q01DX009 (ip), vehicle: saline 89 % of control | dose: 150.0 mg/kg/injection, schedule: Q01DX009 (ip), vehicle: saline 96 % of control | dose: 300.0 mg/kg/injection, schedule: Q01DX009 (ip), vehicle: saline 91 % of control

Cn1cncc1CC1COC(=O)C1C(O)c1ccccc1 (centres undefined)
inactive: [10] 108 % of control | [11] 107 % of control

CCCC(C1=CC(C)(C)c2ccccc2C1=O)c1ccc(Br)cc1 (centres undefined)
inactive: [7] 108 % of control | [4] 110 % of control | [8] 106 % of control | [5] 113 % of control | [9] 103 % of control | [6] 106 % of control

O=C(O)CCCC(=O)NC1CC2c3ccccc3C1c1ccccc12 (centres undefined)
inactive: dose: 100.0 mg/kg/injection, schedule: Q01DX009 (ip), vehicle: saline sonified 101 % of control | [4] 94 % of control | dose: 200.0 mg/kg/injection, schedule: Q01DX009 (ip), vehicle: saline sonified 100 % of control | [5] 96 % of control | dose: 400.0 mg/kg/injection, schedule: Q01DX009 (ip), vehicle: saline sonified 100 % of control | [6] 91 % of control

C[N+](C)(C)/N=C\C1CC=CCC1 (centres undefined)
inactive: dose: 12.5 mg/kg/injection, schedule: Q01DX009 (ip), vehicle: saline 99 % of control | dose: 25.0 mg/kg/injection, schedule: Q01DX009 (ip), vehicle: saline 96 % of control | dose: 50.0 mg/kg/injection, schedule: Q01DX009 (ip), vehicle: saline 99 % of control and 105 % of control

[Br][Sb]([Br])([c]1ccccc1)([c]1ccccc1)[c]1ccccc1
inactive: dose: 50.0 mg/kg/injection, schedule: Q01DX009 (ip), vehicle: Klucel (hydroxypropylcellulose) (HPC) 91 % of control | [7] 97 % of control | [12] 90 % of control | [13] 87 % of control

CC(CN=Cc1ccc(N(CCCl)CCCl)cc1)N=Cc1ccc(N(CCCl)CCCl)cc1 (centres undefined)
inactive: [14] 109 % of control | [15] 111 % of control | [16] 109 % of control | dose: 400.0 mg/kg/injection, schedule: Q01DX001 (ip), vehicle: carboxymethylcellulose (CMC) 111 % of control

COC(=O)c1cccc(OC)c1I
inactive: dose: 50.0 mg/kg/injection, schedule: Q04DX003 (ip), vehicle: Klucel (hydroxypropylcellulose) (HPC) 98 % of control | [4] 106 % of control | [5] 103 % of control

COC(=O)c1cc(=O)n(C)c2ccc(OC)cc12
inactive: dose: 100.0 mg/kg/injection, schedule: Q01DX001 (ip), vehicle: saline with Tween-80 101 % of control | dose: 200.0 mg/kg/injection, schedule: Q01DX001 (ip), vehicle: saline with Tween-80 103 % of control | dose: 400.0 mg/kg/injection, schedule: Q01DX001 (ip), vehicle: saline with Tween-80 109 % of control

Oc1ccc(Sc2ccc(O)cc2)cc1
inactive: [17] 101 % of control | [18] 92 % of control

CC(C)=CCC(=O)NCC(CCN1CCCCC1)(c1cccc2ccccc12)C(C)C (centres undefined)
inactive: dose: 12.5 mg/kg/injection, schedule: Q04DX003 (ip), vehicle: saline with Tween-80 96 % of control | dose: 25.0 mg/kg/injection, schedule: Q04DX003 (ip), vehicle: saline with Tween-80 88 % of control | dose: 50.0 mg/kg/injection, schedule: Q01DX003 (ip), vehicle: saline with Tween-80 88 % of control | dose: 50.0 mg/kg/injection, schedule: Q04DX003 (ip), vehicle: saline with Tween-80 92 % of control | [7] 90 % of control | [8] 90 % of control

C=C(C)c1ccc(C)cc1-c1c(OCc2ccccc2)ccc(CCCCC)c1OC
inactive: dose: 100.0 mg/kg/injection, schedule: Q01DX001 (ip), vehicle: Klucel (hydroxypropylcellulose) (HPC) 97 % of control | dose: 200.0 mg/kg/injection, schedule: Q01DX001 (ip), vehicle: Klucel (hydroxypropylcellulose) (HPC) 92 % of control | dose: 400.0 mg/kg/injection, schedule: Q01DX001 (ip), vehicle: Klucel (hydroxypropylcellulose) (HPC) 92 % of control

Cc1ccc(N2C=[N+](C)c3ccc(C)cc3C2)cc1
inactive: [4] 100 % of control | [5] 97 % of control

COC1OC2COCOC2C2OCOC12 (centres undefined)
inactive: [19] 95 % of control | [12] 98 % of control | [13] 98 % of control

Cc1ccc(N=C(c2ccc([N+](=O)[O-])cc2)c2ccc([N+](=O)[O-])cc2)cc1
inactive: [7] 97 % of control | [4] 96 % of control | [8] 96 % of control | [5] 102 % of control | [9] 102 % of control | [6] 96 % of control

Cc1ccc([N+](=O)[O-])cc1P(=O)(O)c1cc([N+](=O)[O-])ccc1C
inactive: dose: 100.0 mg/kg/injection, schedule: Q01DX001 (ip), vehicle: acetone 94 % of control | [20] 103 % of control | dose: 200.0 mg/kg/injection, schedule: Q01DX001 (ip), vehicle: acetone 94 % of control | [21] 92 % of control | dose: 400.0 mg/kg/injection, schedule: Q01DX001 (ip), vehicle: acetone 93 % of control | dose: 400.0 mg/kg/injection, schedule: Q04DX003 (ip), vehicle: acetone 100 % of control

O=S1(=O)CC(c2ccccc2)(c2ccccc2)N1
inactive: [12] 108 % of control | [13] 112 % of control | [22] 96 % of control

O=C1CC(c2ccccc2)C1(c1ccccc1)c1ccccc1 (centres undefined)
inactive: [4] 98 % of control | [5] 101 % of control | [6] 96 % of control

CC(=O)NCC(O)C(O)C(O)C(O)CO (centres undefined)
inactive: [1] 98 % of control | [2] 92 % of control | [3] 103 % of control

Nc1nc(=O)n(C2CC(O)C(CO)O2)cc1F (centres undefined)
inactive: dose: 30.0 mg/kg/injection, schedule: Q01DX Z (ip), vehicle: saline 105 % of control

Nc1ncnn1C(=S)NCc1ccccc1
inactive: dose: 100.0 mg/kg/injection, schedule: Q01DX009 (ip), vehicle: saline 100 % of control | [17] 89 % of control | [18] 90 % of control | dose: 400.0 mg/kg/injection, schedule: Q04DX003 (ip), vehicle: saline 88 % of control

Cc1ccc(S(=O)(=O)/C=C(\C=C/c2ccccc2)c2ccccc2)cc1
inactive: [20] 95 % of control | [21] 95 % of control

O=[N+]([O-])c1ccc(O)c2ncccc12
inactive: dose: 25.0 mg/kg/injection, schedule: Q04DX002 (ip), vehicle: Klucel (hydroxypropylcellulose) (HPC) 102 % of control | [14] 101 % of control | dose: 50.0 mg/kg/injection, schedule: Q01DX015 (ip), vehicle: saline 97 % of control | [19] 94 % of control and 102 % of control | [15] 109 % of control | dose: 100.0 mg/kg/injection, schedule: Q01DX015 (ip), vehicle: saline 93 % of control | [12] 94 % of control (2×) and 95 % of control | [16] 95 % of control | dose: 200.0 mg/kg/injection, schedule: Q01DX015 (ip), vehicle: saline 95 % of control | [13] 110 % of control | dose: 400.0 mg/kg/injection, schedule: Q01DX015 (ip), vehicle: saline 91 % of control | [22] 91 % of control
